Results on four molecules are retold here after publication PMC9698358, “The Discovery of Novel Ferulic Acid Derivatives Incorporating Substituted Isopropanolamine Moieties as Potential Tobacco Mosaic Virus Helicase Inhibitors” (International Journal of Molecular Sciences, 2022).

Each structure is given as a SMILES string.

Assay [1] has as its target T1, TMV helicase (Tobacco mosaic virus, UniProt Q9IBK4).
T1 construct: helicase domain of the 126/183 kDa replicase
The assay is described as follows: ATPase activity, malachite green phosphate release. In kind it is biochemical.

Assay [2] addresses T1, TMV helicase. The assay is described as follows: microscale thermophoresis. In kind it is binding.

T1 sequence (Q9IBK4 entry or part of it): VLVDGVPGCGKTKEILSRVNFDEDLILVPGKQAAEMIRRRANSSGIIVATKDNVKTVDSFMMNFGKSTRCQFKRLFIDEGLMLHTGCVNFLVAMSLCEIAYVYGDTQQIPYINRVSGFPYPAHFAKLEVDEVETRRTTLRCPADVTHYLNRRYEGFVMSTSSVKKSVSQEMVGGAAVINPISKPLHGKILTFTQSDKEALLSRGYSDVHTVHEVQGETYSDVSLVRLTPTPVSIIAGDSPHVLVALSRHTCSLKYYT

Usually inhibition stands for how much of the control response was suppressed. A high value points to a strong effect. Broadly, the Kd is the equilibrium constant for the complex coming apart. As to `COC(=O)/C=C/c1ccc(OC[C@H](O)CN2CCOCC2)c(OC)c1` [R-A19], the inhibition at 200 µM on TMV helicase [1] worked out at 50.6%. This molecule showed a Kd on TMV helicase [2] of 5.4 µM. Taken in the same sequence, the figures for `COC(=O)/C=C/c1ccc(OCC(O)CN2CCN(Cc3ccccc3C)CC2)c(OC)c1` (stereo not shown) [A31] were 47% and 13.5 µM. The matching figures for `COC(=O)/C=C/c1ccc(OC[C@@H](O)CN2CCOCC2)c(OC)c1` [S-A19]: 44.5% and 22.8 µM. On to `COc1cc(/C=C/C(=O)O)ccc1O` [FA, 3-methoxy-4-hydroxycinnamic acid], for which 200 µM produced 26.4% inhibition against TMV helicase [1].
